Test results as given in patent US20250144067A1, “PERSONALIZED STARVATION THERAPY FOR CANCER” (Faeth Therapeutics, Inc., priority 2021, published 2025).
Structures can show the parent of a compound that is named as a salt.

The compounds below were run on NCI-H292 lung cancer cells (assay: FDA drug screening, complete media vs cholesterol-free media with simvastatin (TABLE 2)). Conditions: not given.
Type: cell-based, human

Row | Structure (SMILES) | Cholesterol-free media + simvastatin (0.04 μM) | Complete Media | Difference
1 | OC(c1ccccc1)(c1ccccc1)C12CC[N+](CCOCc3ccccc3)(CC1)CC2.[Br-] [Umeclidinium (bromide)] | 1.336 | 0.9344 | −0.40

Same assay, conditions: NCI-H292 cells, FDA drug library screen, cholesterol-free media with simvastatin 0.04 μM

Row | Structure (SMILES) | Cholesterol-free media + simvastatin (0.04 μM)
2 | CC(C)(C)NCC(O)c1ccccc1Cl (centres unmarked) [Tulobuterol (hydrochloride)] | 1.041
3 | CCOC(=O)c1c(CSc2ccccc2)n(C)c2cc(Br)c(O)c(CN(C)C)c12 [Umifenovir (hydrochloride)] | 0.9009
4 | COc1ccccc1N1CCN(CCCNc2cc(=O)n(C)c(=O)n2C)CC1 [Urapidil] | 1.097
5 | C[C@H](CCC(=O)O)[C@H]1CC[C@H]2[C@@H]3[C@@H](O)C[C@@H]4C[C@H](O)CC[C@]4(C)[C@H]3CC[C@]12C [Ursodiol] | 1.413
6 | CC(C)[C@H](N)C(=O)OCCOCn1cnc2c(=O)[nH]c(N)nc21 [Valacyclovir (hydrochloride)] | 0.9432

Same assay, conditions: NCI-H292 cells, FDA drug library screen, complete media

Row | Structure (SMILES) | Complete Media
7 | CC(C)(C)NCC(O)c1ccccc1Cl (centres unmarked) [Tulobuterol (hydrochloride)] | 1.605
8 | CCOC(=O)c1c(CSc2ccccc2)n(C)c2cc(Br)c(O)c(CN(C)C)c12 [Umifenovir (hydrochloride)] | 1.225
9 | COc1ccccc1N1CCN(CCCNc2cc(=O)n(C)c(=O)n2C)CC1 [Urapidil] | 1.271
10 | C[C@H](CCC(=O)O)[C@H]1CC[C@H]2[C@@H]3[C@@H](O)C[C@@H]4C[C@H](O)CC[C@]4(C)[C@H]3CC[C@]12C [Ursodiol] | 1.314
11 | CC(C)[C@H](N)C(=O)OCCOCn1cnc2c(=O)[nH]c(N)nc21 [Valacyclovir (hydrochloride)] | 1.26

Same assay, conditions: NCI-H292 cells, FDA library drug in cholesterol-free media with simvastatin 0.04 μM

Row | Structure (SMILES) | Cholesterol-free media + simvastatin (0.04 μM)
12 | O=C(O[C@H]1C[C@H]2CC[C@@H](C1)[N+]21CCCC1)C(O)(c1ccccc1)c1ccccc1.[Cl-] [Trospium (chloride)] | 2.08
13 | COc1cc(C(=O)NC2CCCNC2)cc(OC)c1OC (centres unmarked) [Troxipide] | 1.578
14 | O=c1cc[nH]c(=O)[nH]1 [Uracil] | 1.203
15 | COc1ccccc1N1CCN(CCCNc2cc(=O)n(C)c(=O)n2C)CC1 [Urapidil (hydrochloride)] | 1.22
16 | NC(N)=O [Urea] | 1.928

Same assay, conditions: NCI-H292 cells, FDA library drug in complete media

Row | Structure (SMILES) | Complete Media
17 | O=C(O[C@H]1C[C@H]2CC[C@@H](C1)[N+]21CCCC1)C(O)(c1ccccc1)c1ccccc1.[Cl-] [Trospium (chloride)] | 1.646
18 | COc1cc(C(=O)NC2CCCNC2)cc(OC)c1OC (centres unmarked) [Troxipide] | 1.185
19 | O=c1cc[nH]c(=O)[nH]1 [Uracil] | 0.8949
20 | COc1ccccc1N1CCN(CCCNc2cc(=O)n(C)c(=O)n2C)CC1 [Urapidil (hydrochloride)] | 0.87
21 | NC(N)=O [Urea] | 1.641

Same assay, conditions: complete media minus cholesterol-free media + simvastatin; >0 enhanced anti-cancer activity, about 0 neutral, <0 antagonist

Row | Structure (SMILES) | Difference
22 | CC(C)(C)NCC(O)c1ccccc1Cl (centres unmarked) [Tulobuterol (hydrochloride)] | 0.56
23 | CCOC(=O)c1c(CSc2ccccc2)n(C)c2cc(Br)c(O)c(CN(C)C)c12 [Umifenovir (hydrochloride)] | 0.32
24 | COc1ccccc1N1CCN(CCCNc2cc(=O)n(C)c(=O)n2C)CC1 [Urapidil] | 0.17
25 | CC(C)[C@H](N)C(=O)OCCOCn1cnc2c(=O)[nH]c(N)nc21 [Valacyclovir (hydrochloride)] | 0.32

Same assay, conditions: complete media vs cholesterol-free media + simvastatin (0.04 μM); >0 enhanced anti-cancer activity, about 0 neutral, <0 antagonist

Row | Structure (SMILES) | Difference
26 | COc1cc(C(=O)NC2CCCNC2)cc(OC)c1OC (centres unmarked) [Troxipide] | −0.39
27 | O=c1cc[nH]c(=O)[nH]1 [Uracil] | −0.31
28 | COc1ccccc1N1CCN(CCCNc2cc(=O)n(C)c(=O)n2C)CC1 [Urapidil (hydrochloride)] | −0.35
29 | NC(N)=O [Urea] | −0.29
30 | C[C@H](CCC(=O)O)[C@H]1CC[C@H]2[C@@H]3[C@@H](O)C[C@@H]4C[C@H](O)CC[C@]4(C)[C@H]3CC[C@]12C [Ursodiol] | −0.10

Same assay, conditions: complete media vs cholesterol-free media + simvastatin (0.04 μM); […]

Row | Structure (SMILES) | Difference
31 | O=C(O[C@H]1C[C@H]2CC[C@@H](C1)[N+]21CCCC1)C(O)(c1ccccc1)c1ccccc1.[Cl-] [Trospium (chloride)] | −0.43

What follows are compounds tested on NCI-H292 lung cancer cells (assay: FDA drug screening, complete media vs cholesterol-free media without statin (TABLE 1)). Conditions: not given.
Type: cell-based, human

Row | Structure (SMILES) | Cholesterol-free | Complete | Difference
32 | OC(c1ccccc1)(c1ccccc1)C12CC[N+](CCOCc3ccccc3)(CC1)CC2.[Br-] [Umeclidinium (bromide)] | 0.5848 | 0.7554 | 0.17

Same assay, conditions: Complete minus Cholesterol-free; >0 enhanced anti-cancer activity, about 0 neutral, <0 antagonist

Row | Structure (SMILES) | Difference
33 | COc1ccccc1N1CCN(CCCNc2cc(=O)n(C)c(=O)n2C)CC1 [Urapidil (hydrochloride)] | −0.28
34 | NC(N)=O [Urea] | −0.20

Same assay, conditions: Complete minus Cholesterol-free; greater than 0 enhanced anti-cancer activity, about 0 neutral, below 0 antagonist

Row | Structure (SMILES) | Difference
35 | O=c1cc[nH]c(=O)[nH]1 [Uracil] | −0.17

Same assay, conditions: Complete minus Cholesterol-free; greater than 0 enhanced anti-cancer activity, about 0 neutral, below 0 antagonists

Row | Structure (SMILES) | Difference
36 | COc1cc(C(=O)NC2CCCNC2)cc(OC)c1OC (centres unmarked) [Troxipide] | −0.70
37 | CC(C)(C)NCC(O)c1ccccc1Cl (centres unmarked) [Tulobuterol (hydrochloride)] | −0.62
38 | COc1ccccc1N1CCN(CCCNc2cc(=O)n(C)c(=O)n2C)CC1 [Urapidil] | −0.56

Same assay, conditions: NCI-H292 cells in cholesterol-free media without statin

Row | Structure (SMILES) | Cholesterol-free
39 | COc1cc(C(=O)NC2CCCNC2)cc(OC)c1OC (centres unmarked) [Troxipide] | 1.812
40 | COc1ccccc1N1CCN(CCCNc2cc(=O)n(C)c(=O)n2C)CC1 [Urapidil] | 1.658

Same assay, conditions: NCI-H292 cells in complete media

Row | Structure (SMILES) | Complete
41 | COc1cc(C(=O)NC2CCCNC2)cc(OC)c1OC (centres unmarked) [Troxipide] | 1.111
42 | CC(C)(C)NCC(O)c1ccccc1Cl (centres unmarked) [Tulobuterol (hydrochloride)] | 0.9988
43 | COc1ccccc1N1CCN(CCCNc2cc(=O)n(C)c(=O)n2C)CC1 [Urapidil] | 1.095

Same assay, conditions: NCI-H292 cells, FDA drug library screen, cholesterol-free media without statin

Row | Structure (SMILES) | Cholesterol-free
44 | O=c1cc[nH]c(=O)[nH]1 [Uracil] | 1.032

Same assay, conditions: NCI-H292 cells, FDA drug library screen, complete media

Row | Structure (SMILES) | Complete
45 | O=c1cc[nH]c(=O)[nH]1 [Uracil] | 0.8653

Same assay, conditions: NCI-H292 cells, cholesterol-free media without statin

Row | Structure (SMILES) | Cholesterol-free
46 | CCOC(=O)c1c(CSc2ccccc2)n(C)c2cc(Br)c(O)c(CN(C)C)c12 [Umifenovir (hydrochloride)] | 1.088
47 | COc1ccccc1N1CCN(CCCNc2cc(=O)n(C)c(=O)n2C)CC1 [Urapidil (hydrochloride)] | 1.01
48 | NC(N)=O [Urea] | 1.334
49 | C[C@H](CCC(=O)O)[C@H]1CC[C@H]2[C@@H]3[C@@H](O)C[C@@H]4C[C@H](O)CC[C@]4(C)[C@H]3CC[C@]12C [Ursodiol] | 1.392
50 | CC(C)[C@H](N)C(=O)OCCOCn1cnc2c(=O)[nH]c(N)nc21 [Valacyclovir (hydrochloride)] | 1.143

Same assay, conditions: NCI-H292 cells, cholesterol-free media without statin, FDA drug library screen

Row | Structure (SMILES) | Cholesterol-free
51 | O=C(O[C@H]1C[C@H]2CC[C@@H](C1)[N+]21CCCC1)C(O)(c1ccccc1)c1ccccc1.[Cl-] [Trospium (chloride)] | 1.278

Same assay, conditions: NCI-H292 cells, complete media

Row | Structure (SMILES) | Complete
52 | CCOC(=O)c1c(CSc2ccccc2)n(C)c2cc(Br)c(O)c(CN(C)C)c12 [Umifenovir (hydrochloride)] | 0.7625
53 | COc1ccccc1N1CCN(CCCNc2cc(=O)n(C)c(=O)n2C)CC1 [Urapidil (hydrochloride)] | 0.7335
54 | NC(N)=O [Urea] | 1.138
55 | C[C@H](CCC(=O)O)[C@H]1CC[C@H]2[C@@H]3[C@@H](O)C[C@@H]4C[C@H](O)CC[C@]4(C)[C@H]3CC[C@]12C [Ursodiol] | 0.9832
56 | CC(C)[C@H](N)C(=O)OCCOCn1cnc2c(=O)[nH]c(N)nc21 [Valacyclovir (hydrochloride)] | 0.7981

Same assay, conditions: NCI-H292 cells, complete media, FDA drug library screen

Row | Structure (SMILES) | Complete
57 | O=C(O[C@H]1C[C@H]2CC[C@@H](C1)[N+]21CCCC1)C(O)(c1ccccc1)c1ccccc1.[Cl-] [Trospium (chloride)] | 1.859

Same assay, conditions: complete vs cholesterol-free media; […]

Row | Structure (SMILES) | Difference
58 | O=C(O[C@H]1C[C@H]2CC[C@@H](C1)[N+]21CCCC1)C(O)(c1ccccc1)c1ccccc1.[Cl-] [Trospium (chloride)] | 0.58

Same assay, conditions: complete vs cholesterol-free media; greater than 0 enhanced anti-cancer activity, about 0 neutral, below 0 antagonists

Row | Structure (SMILES) | Difference
59 | CCOC(=O)c1c(CSc2ccccc2)n(C)c2cc(Br)c(O)c(CN(C)C)c12 [Umifenovir (hydrochloride)] | −0.33
60 | C[C@H](CCC(=O)O)[C@H]1CC[C@H]2[C@@H]3[C@@H](O)C[C@@H]4C[C@H](O)CC[C@]4(C)[C@H]3CC[C@]12C [Ursodiol] | −0.41
61 | CC(C)[C@H](N)C(=O)OCCOCn1cnc2c(=O)[nH]c(N)nc21 [Valacyclovir (hydrochloride)] | −0.34
